Laboratory results from ChEMBL document CHEMBL1201862, “PubChem BioAssay data set” (2004).
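Following 48 hours of exposure in 96-well plates, responses at five concentrations were used to interpolate endpoints linearly. GI50: concentration for 50% inhibition of growth.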 Active and inactive are the calls of the source. Cut-off read from the data, not from the text of the source: active = GI50 up to about 1.1 µM and inactive = higher.

Experiments:
Experiment in all cases: DTP human tumour cell line panel, 48 h
[1] = test system: A498
[2] = test system: A549
[3] = test system: ACHN
[4] = test system: BT-549
[5] = test system: CAKI-1
[6] = test system: CCRF-CEM
[7] = test system: COLO 205
[8] = test system: EKVX
[9] = test system: HCC 2998
[10] = test system: HCT-116
[11] = test system: HCT-15
[12] = test system: HL-60
[13] = test system: HOP-92
[14] = test system: HT-29
[15] = test system: Hs-578T
[16] = test system: IGROV-1
[17] = test system: K562
[18] = test system: KM12
[19] = test system: LOX IMVI
[20] = test system: M14
[21] = test system: MCF7
[22] = test system: MDA-MB-231
[23] = test system: MDA-MB-435
[24] = test system: MDA-N
[25] = test system: MOLT-4
[26] = test system: Malme-3M
[27] = test system: NCI-H23
[28] = test system: NCI-H460
[29] = test system: NCI-H522
[30] = test system: NCI/ADR-RES
[31] = test system: OVCAR-3
[32] = test system: OVCAR-4
[33] = test system: OVCAR-5
[34] = test system: OVCAR-8
[35] = test system: PC-3
[36] = test system: RPMI-8226
[37] = test system: SF-268
[38] = test system: SF-295
[39] = test system: SF-539
[40] = test system: SK-MEL-28
[41] = test system: SK-MEL-2
[42] = test system: SK-MEL-5
[43] = test system: SN12C
[44] = test system: SNB-19
[45] = test system: SW-620
[46] = test system: TK-10
[47] = test system: U-251
[48] = test system: UACC-257
[49] = test system: UACC-62
[50] = test system: UO-31
[51] = test system: 786-0
[52] = test system: DU-145
[53] = test system: HOP-62
[54] = test system: NCI-H226
[55] = test system: RXF 393
[56] = test system: SR
[57] = test system: SNB-75

For Cc1cc(N(CCOS(C)(=O)=O)CCOS(C)(=O)=O)ccc1C=O, the GI50 [1] was 1.85 µM (inactive), the GI50 [2] was 0.979 µM (active) and the GI50 [3] was 0.379 µM (active). For the same molecule, the GI50 [4] was 15.2 µM (inactive), the GI50 [5] was 0.127 µM (active) and the GI50 [6] was 1.08 µM (active). For the same molecule, the GI50 [7] was 1.39 µM (inactive), the GI50 [8] was 3.61 µM (inactive) and the GI50 [9] was 4.65 µM (inactive). The GI50 [10] was 28.9 µM (inactive), the GI50 [11] was 13.2 µM and the GI50 [12] was 2.98 µM (inactive). For the same molecule, the GI50 [13] was 9.73 µM (inactive), the GI50 [14] was 4.49 µM (inactive) and the GI50 [15] was 18.5 µM (inactive). For the same molecule, the GI50 [16] was 11.7 µM (inactive), the GI50 [17] was 9.93 µM (inactive) and the GI50 [18] was 14.7 µM (inactive). For the same molecule, the GI50 [19] was 6.68 µM (inactive), the GI50 [20] was 3.05 µM (inactive) and the GI50 [21] was 1.22 µM (inactive). The GI50 [22] was 28.5 µM (inactive), the GI50 [23] was 11.5 µM (inactive) and the GI50 [24] was 11.4 µM (inactive). The GI50 [25] was 1.61 µM (inactive), the GI50 [26] was 7.91 µM (inactive) and the GI50 [27] was 3.68 µM (inactive). For the same molecule, the GI50 [28] was 0.078 µM (active), the GI50 [29] was 0.142 µM (active) and the GI50 [30] was 11.7 µM (inactive). For the same molecule, the GI50 [31] was 6.19 µM (inactive), the GI50 [32] was 18.2 µM (inactive) and the GI50 [33] was 6.7 µM (inactive). For the same molecule, the GI50 [34] was 10.9 µM (inactive), the GI50 [35] was 20 µM (inactive) and the GI50 [36] was 4.02 µM (inactive). The GI50 [37] was 6.56 µM (inactive), the GI50 [38] was 4.35 µM (inactive) and the GI50 [39] was < 0.01 µM (active). For the same molecule, the GI50 [40] was 3.68 µM (inactive), the GI50 [41] was 21.1 µM (inactive) and the GI50 [42] was 7.78 µM (inactive). The GI50 [43] was 1.47 µM (inactive), the GI50 [44] was 10.2 µM (inactive) and the GI50 [45] was 0.449 µM (active). The GI50 [46] was 2.91 µM (inactive), the GI50 [47] was 8.36 µM (inactive) and the GI50 [48] was 11.7 µM (inactive). The GI50 [49] was 2.43 µM (inactive) and the GI50 [50] was 2.88 µM (inactive).
In the case of C[C@@]1(O)C[C@@H](N2C(=O)O[C@@H](c3ccccc3)[C@H]2c2ccccc2)[C@@H]1COCc1ccccc1, the GI50 [51] is reported as 21.3 µM (inactive), the GI50 [1] is reported as 18.4 µM (inactive) and the GI50 [2] is reported as 22.6 µM (inactive). The GI50 [3] was 26.2 µM (inactive), the GI50 [4] was 17.5 µM (inactive) and the GI50 [5] was 22 µM (inactive). For the same molecule, the GI50 [7] was 15 µM (inactive), the GI50 [52] was 28.5 µM (inactive) and the GI50 [8] was 20.5 µM (inactive). The GI50 [9] was 19.8 µM (inactive), the GI50 [10] was 19.5 µM (inactive) and the GI50 [11] was 24.4 µM. For the same molecule, the GI50 [12] was 6.35 µM (inactive), the GI50 [53] was 29.2 µM (inactive) and the GI50 [13] was 19 µM (inactive). The GI50 [14] was 17.9 µM (inactive), the GI50 [15] was 21.9 µM (inactive) and the GI50 [16] was 25 µM (inactive). The GI50 [17] was 19.4 µM (inactive), the GI50 [18] was 19.6 µM (inactive) and the GI50 [19] was 15.9 µM (inactive). The GI50 [20] was 15.8 µM (inactive), the GI50 [21] was 24.5 µM (inactive) and the GI50 [22] was 15.5 µM (inactive). For the same molecule, the GI50 [23] was 28.4 µM (inactive), the GI50 [24] was 16.2 µM (inactive) and the GI50 [25] was 5.41 µM (inactive). The GI50 [26] was 20.6 µM (inactive), the GI50 [54] was 20.2 µM (inactive) and the GI50 [27] was 16.1 µM (inactive). For the same molecule, the GI50 [28] was 17.7 µM (inactive), the GI50 [29] was 15 µM (inactive) and the GI50 [30] was 15.2 µM (inactive). For the same molecule, the GI50 [31] was 17.3 µM (inactive), the GI50 [32] was 22.9 µM (inactive) and the GI50 [33] was 23.1 µM (inactive). For the same molecule, the GI50 [34] was 17.8 µM (inactive), the GI50 [35] was 15.9 µM (inactive) and the GI50 [36] was 7.74 µM (inactive). The GI50 [55] was 18.8 µM (inactive), the GI50 [37] was 18.2 µM (inactive) and the GI50 [38] was 16.4 µM (inactive). For the same molecule, the GI50 [39] was 20.8 µM (inactive), the GI50 [40] was 18.2 µM (inactive) and the GI50 [41] was 12.7 µM (inactive). The GI50 [42] was 13.7 µM (inactive), the GI50 [43] was 17.4 µM (inactive) and the GI50 [44] was 34.8 µM (inactive). For the same molecule, the GI50 [56] was 15 µM (inactive), the GI50 [45] was 26 µM (inactive) and the GI50 [46] was 29.2 µM (inactive). The GI50 [47] was 14.6 µM (inactive), the GI50 [48] was 15.9 µM (inactive) and the GI50 [49] was 11.3 µM (inactive). For the same molecule, the GI50 [50] was 21.6 µM (inactive).
CC1=CCC[C@H]2[C@](C)(CC3=CC(=O)C(Sc4ccccc4)=CC3=O)[C@@H](C)CC[C@]12C was tested, and the GI50 [51] was 18.2 µM (inactive), the GI50 [1] was 19.9 µM (inactive) and the GI50 [2] was 17.5 µM (inactive). For the same molecule, the GI50 [3] was 19.2 µM (inactive), the GI50 [4] was 19.5 µM (inactive) and the GI50 [5] was 17.1 µM (inactive). The GI50 [7] was 14.5 µM (inactive), the GI50 [52] was 22.5 µM (inactive) and the GI50 [8] was 20.2 µM (inactive). For the same molecule, the GI50 [9] was 20.4 µM (inactive), the GI50 [10] was 16.6 µM (inactive) and the GI50 [11] was 19.2 µM. The GI50 [53] was 16.9 µM (inactive), the GI50 [18] was 41.6 µM (inactive) and the GI50 [20] was 16.7 µM (inactive). For the same molecule, the GI50 [22] was 21.4 µM (inactive), the GI50 [24] was 18.5 µM (inactive) and the GI50 [54] was 14.7 µM (inactive). For the same molecule, the GI50 [28] was 20 µM (inactive), the GI50 [30] was 17.1 µM (inactive) and the GI50 [31] was 16.6 µM (inactive). For the same molecule, the GI50 [32] was 19.7 µM (inactive), the GI50 [33] was 17.1 µM (inactive) and the GI50 [34] was 13.6 µM (inactive). The GI50 [35] was 23 µM (inactive), the GI50 [38] was 17.3 µM (inactive) and the GI50 [39] was 19.8 µM (inactive). The GI50 [40] was 20.9 µM (inactive), the GI50 [42] was 17.2 µM (inactive) and the GI50 [43] was 17.7 µM (inactive). For the same molecule, the GI50 [44] was 20.5 µM (inactive), the GI50 [57] was 20.4 µM (inactive) and the GI50 [56] was 21.8 µM (inactive). The GI50 [45] was 16.9 µM (inactive), the GI50 [47] was 18.1 µM (inactive) and the GI50 [48] was 15.9 µM (inactive). The GI50 [49] was 21.7 µM (inactive) and the GI50 [50] was 15.7 µM (inactive).
